Experimental data reported in US10695425B2, “Methods for treating and/or limiting development of diabetes in subjects with amyotrophic lateral sclerosis” (Biocrine AB, priority 2015, dated 2020).

Test system: αTC1-6 cells
Assay: K+ depolarization-induced [Ca2+]i response in αTC1-6 cells (fura-2)
Format: cell-based, mouse
Conditions: αTC1-6 cells pre-exposed to specific Ca2+ channel blocker
Procedure: A glucose concentration of 11 mM was used for islet stimulation. After loading, islets and cells on the glass coverslips were transferred to an open perifusion chamber maintained at 37° C. and [Ca^2+]i measured as the 340/380 nm ratio. The light source was equipped with a xenon arc lamp and an integrated shutter (Lambda DG-4, Sutter instrument company), and coupled to the microscope (Olympus ix 71) via a liquid light guide. The 16-bit grayscale images with a binning of 1×1 were captured every 1 s (exposure time ranged from 100 to 300 ms) with a cooled EM-CCD camera (ImagEM X2, Hamamatsu). The camera and shutter were controlled by METAFLUOR® (Molecular Devices) software, which was also used for analysis. Cells with bright [Ca^2+]i signal defined the regions of interest (ROIs). ROI signals were calculated by subtracting background noise signal.

## w-agatoxin TK
  blocker-sensitive share of K+ depolarization-induced [Ca2+]i increase: considerable number
